Where two headings read alike, the source gives them in different places. Marks after values point to notes of the source that are not given here.
What was measured:
[1] = value from the literature, cited from earlier work
[2] = Reduction potential (E°′) from HPLC redox equilibrium with oxidized DTT; type: physicochemical; conditions: for Keq for the reaction with oxidized DTT: 50 mM potassium phosphate buffer pH 7, 24 h, room temperature
Method: [2g] Data were obtained by a procedure similar to that described previously. [2g, 15b] […] The flask was then flushed with N2(g) for 30 min.
A 50 mM stock solution of potassium phosphate buffer (pH 7) was degassed and purged with N2(g) for 30 min immediately prior to use. Buffer (15 mL) was added, and the reaction mixture was stirred under N2(g) for 24 h at room temperature. The reaction mixture was then quenched by the addition of 3 N HCl (1:100 dilution). The reaction mixture was passed through a 4.5-μm filter, and 100 μL of the reaction mixture was analyzed immediately by HPLC using a Waters system equipped with a Waters 996 photodiode array detector, Empower 2 software, and a Varian C18 reverse-phase column. The column was eluted at 1.0 mL/min with water (5.0 mL), followed by a linear gradient (0-40% v/v) of acetonitrile/water over 40 min. Compounds were detected by their absorbance at 205 nm. Reduced and oxidized DTBA are highly polar and elute from the column immediately (as confirmed by LC-MS). Two peaks, however, were clearly visible in the chromatogram FIG. 4). […] Calibration curves were generated and found to be linear over the used concentration range.
The procedure described in Example 5 was also performed with BMS. […] A previously reported reduction potential for BMS was E°′=−0.31 V. [2g]

[3] = value from the literature, cited from earlier work; remark: listed apart in the source
[4] = from ref. 13; cited from earlier work
[5] = Kinetic studies on the reduction of oxidized L-glutathione; type: physicochemical; conditions: for kobs, second-order rate constant, reduction of oxidized L-glutathione: pH 7.0, 50 mM potassium phosphate buffer, mean ± SE from three experiments
Method: An experiment similar to that in Example 7 was conducted with disulfide=oxidized L-glutathione. Reactions were quenched at various time points (2, 4, 6, and 8 min) and 100 μL was analyzed by HPLC (1.0 mL/min with water (5.0 mL) in 0.1% v/v TFA, followed by a linear gradient (0-40% v/v) of acetonitrile in 0.1% v/v TFA over 40 min). The extent of reduction was determined by integrating the newly formed L-glutathione reduced peak at 220 nm (retention time of 7 min). Second-order rate constants were calculated from a linear fit of the data in FIG. 1B (that is, kobs=[(1/cfinal)−(1/cinitial)]/t). Rate constants were the mean±SE from three experiments.

[6] = Separation using DOWEX 50WX4-400 ion-exchange resin (Ellman's assay of filtrate); type: physicochemical; conditions: 0.10 M sodium phosphate buffer, pH 8.0, 1 mM EDTA
Method: A reaction buffer (0.10 M sodium phosphate, pH 8.0, 1 mM EDTA) was prepared. Ellman's reagent solution was prepared by adding Ellman's reagent (4 mg) to 1 mL of the reaction buffer. Next, to 25 mL of reaction buffer (0.10 M sodium phosphate, pH 8.0, 1 mM EDTA) was added DTBA (2.2 mg, 1.27×10^−5 mol) and 1.7 g of DOWEX 50WX4-400 ion-exchange resin. The mixture was swirled for several minutes and filtered through a fritted syringe. Ellman's reagent solution (50 μL) was added to two separate vials containing 2.5 mL of reaction buffer. As a blank, 250 μL of reaction buffer was added to one of the vials, and the absorbance at 412 nm was set to zero. Filtrate (250 μL) was then added to the other vial and its absorbance was recorded. With A412=0.012 and using an extinction coefficient of ε=14,150 M^−1cm^−1, [24b, 24c] it was calculated that >99% of DTBA was retained by the resin and thus removed from solution. […] See Example 3 for a more detailed explanation of similar calculations using Ellman's assay.

[7] = Kinetic studies on the reduction of oxidized βME; type: physicochemical
Method: The observed second-order rate constant (kobs) for a thiol-disulfide interchange reaction was determined by adapting a procedure described previously. [2e] When the disulfide is oxidized βME, a 50 mM stock solution of potassium phosphate buffer was degassed and purged with N2(g) for 30 min immediately prior to use. […] Phosphate buffer (2.5 mL) was added to the round-bottom flask containing the dithiol. Oxidized βME stock solution (2.5 mL) was then added, and the reaction mixture was stirred at room temperature under N2(g) for 1 min. The reaction mixture was quenched by the addition of 0.10 mL of 3 N HCl. The reaction mixture was passed through a 4.5-μm filter, and 100 μL of the reaction mixture was analyzed immediately by HPLC using a Varian C18 reverse-phase column. The column was eluted at 1.0 mL/min with water (5.0 mL), followed by a linear gradient (0-40% v/v) of acetonitrile/water over 40 min. The extent of reduction was determined by integrating the newly formed peak corresponding to βME at 205 nm (retention time: 8 min). This process was repeated for reaction times of 2 and 4 min. Calibration curves were generated and found to be linear over the used concentration range. The amount of residual oxidized βME was calculated, and second-order rate constants were calculated from a linear fit of the data in FIG. 1A (that is, kobs=[(1/cfinal)−(1/cinitial)]/t). […] Rate constants were the mean±SE from three experiments.

[8] = Determination of thiol pKa values (pH-titration monitored by absorbance at 238 nm); type: physicochemical; conditions: for pKa: potassium phosphate buffer, mean ± SE from this work
Method: The thiol pKa values of DTBA were determined by measuring its absorbance at 238 nm in solutions of different pH. The deprotonated thiolate absorbs much more strongly at 238 nm than does its protonated counterpart. [15a] This attribute was exploited for determining thiol pKa values as described previously. [15b] Buffered stock solutions of K3PO4, K2HPO4, and KH2PO4 (100 mM) were degassed and flushed with N2(g) for 1 h immediately prior to use. A stock solution of DTBA (1.5 mM) in KH2PO4 was then prepared. Various combinations of the buffered stock solutions were combined in duplicate to give two identical sets of 1-mL solutions of pH 5.5-11. KH2PO4 stock solution (70 μL) was added to each replicate pair of solutions and used to set the A238 to zero. Dithiol solution (70 μL) was then added to its complimentary 1-mL vial, and its absorbance at 238 nm was recorded. The pH of the solution was then immediately measured using a Beckman pH meter, which had been calibrated prior to use with pH 7 and pH 10 standard solutions from Fisher Scientific. This process was repeated multiple times to obtain a plot of A238 vs pH (FIG. 3).
pKa values were determined by fitting the data in FIG. 3 to eq 1, which is derived from Beer's law and the definition of the acid dissociation constant. [15b] In eq 1, CT is total thiol concentration, εSH^SH is the extinction coefficient of the doubly protonated form, εSH^S− is the extinction coefficient of the singly protonated form, and εS−^S−is the extinction coefficient of the unprotonated form. Both pKa values and extinction coefficients were determined from the curve fit.

[9] = Solubility in water; type: physicochemical; conditions: HCl salt
[10] = target: T1, rabbit muscle creatine kinase (Oryctolagus cuniculus, UniProt P00563); experiment: Kinetic studies on the reactivation of creatine kinase (reduction of mixed disulfide at Cys283); type: biochemical; conditions: creatine kinase-Cys283-S—S-glutathione; mean ± SE from three experiments
T1 construct: Cys283 in the active site of rabbit muscle creatine kinase; from tissue; host or cells: rabbit muscle
T1 sequence (P00563 whole entry): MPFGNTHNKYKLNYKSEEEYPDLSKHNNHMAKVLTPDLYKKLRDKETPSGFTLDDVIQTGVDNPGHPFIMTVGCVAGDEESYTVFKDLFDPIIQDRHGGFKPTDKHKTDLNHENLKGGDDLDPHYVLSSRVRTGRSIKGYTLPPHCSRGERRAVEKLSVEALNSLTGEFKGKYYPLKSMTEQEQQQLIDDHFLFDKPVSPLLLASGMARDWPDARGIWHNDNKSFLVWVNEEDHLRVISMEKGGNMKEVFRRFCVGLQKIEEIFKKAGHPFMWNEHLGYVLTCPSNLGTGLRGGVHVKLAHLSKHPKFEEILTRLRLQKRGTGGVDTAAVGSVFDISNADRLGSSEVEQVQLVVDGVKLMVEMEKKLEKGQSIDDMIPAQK
Method: Cys283 in the active site of rabbit muscle creatine kinase was oxidized as a mixed disulfide by a procedure described previously, [28] but with a slight modification in the measurement of active enzyme. A unit of enzyme was defined as the amount required to produce 1 μmol/min of NADPH. Using an extinction coefficient for NADPH of ε=6.22 mM^−cm^−1 at 340 nm, the units of active creatine kinase in solution at a particular time were calculated. […] Enzymatic activity (%) at particular times was calculated by dividing the number of active units of enzyme by the possible number of units in the solution, and was plotted as in FIG. 2B. Values of the second-order rate constant k were determined by using eq 4 as described in Example 9, and were the mean±SE from three experiments.

[11] = target: T2, papaya latex papain (Carica papaya, UniProt P00784); experiment: Kinetic studies on the reactivation of papain (reduction of mixed disulfide at Cys25); type: biochemical; conditions: 0.10 M imidazole-HCl buffer, pH 7.0, 2 mM EDTA; for kobs, second-order rate constant, reactivation of papain: mean ± SE from three experiments
T2 construct: Cys25 in the active site of papaya latex papain; from tissue; host or cells: papaya latex
T2 sequence (P00784 134-345): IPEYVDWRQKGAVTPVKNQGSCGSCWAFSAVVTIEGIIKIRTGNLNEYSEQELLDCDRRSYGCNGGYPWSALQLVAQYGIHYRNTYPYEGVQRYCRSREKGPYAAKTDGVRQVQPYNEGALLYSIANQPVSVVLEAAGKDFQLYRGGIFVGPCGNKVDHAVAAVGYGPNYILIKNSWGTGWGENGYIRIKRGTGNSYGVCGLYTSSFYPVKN
Method: Cys25 in the active site of papaya latex papain was oxidized as a mixed disulfide by a procedure described previously.[25] Briefly, a stock solution of methyl methanethiosulfonate (3.5 mM) was prepared by dilution of 5 μL of methyl methanethiosulfonate with 15 mL of 0.10 M potassium phosphate buffer, pH 7.0, containing EDTA (2 mM). KCl (0.011 g, 0.15 mmol) was added to 1.5 mL of this stock solution. The solution was deoxygenated by bubbling N2(g) through it for 15 min. Next, papain (5 mg, 150 units) was added, and the resulting solution was incubated at room temperature under N2(g) for 12 h. Excess methyl methanethiosulfonate was removed by size-exclusion chromatography using a Sephadex G-25 column. The final concentration of papain was determined by A280 using ε280=5.60×10^4 M^−1cm^−1. A solution (0.26 mL) of the chromatographed protein was diluted with 4.94 mL of deoxygenated aqueous buffer (0.10 M imidazole-HCl buffer, pH 7.0, containing 2 mM EDTA). Enzyme solution (1.25 mL) was then added to four separate vials. […] The rate of change in absorbance at 410 nm was recorded at 25° C. A unit of protein is defined by the amount of enzyme required to produce 1 μmol/min of 4-nitroaniline. Using an extinction coefficient for 4-nitroaniline of ε=8,800 M^−1cm^−1 at 410 nm, [27] the number of units of active papain in solution at each time point was calculated. […] Enzymatic activity (%) at particular times was calculated by dividing the number of active units of enzyme by the possible number of units in the solution, and was plotted as in FIG. 2A. To determine the value of the second-order rate constant kobs for the reducing agents, the second-order rate equation (eq 4) was transformed into eq 5, which was fitted to the data with the program PRISM 5.0. […] Values of kobs were the mean±SE from three experiments.

[12] = pH 5.5, 50 mM potassium phosphate buffer
[13] = pH 7.0, 50 mM potassium phosphate buffer, mean ± SE from three experiments

SMILES | Disulfide Reduction Potential (E°′) [1] | Keq for the reaction with oxidized DTT [2] | Thiol pKa ([3]; lower (first) thiol pKa) | kobs, second-order rate constant, reduction of oxidized L-glutathione [5] [M⁻¹ s⁻¹] | Fraction removed from solution (retained) by Dowex 50 cation-exchange resin [6] [%] | kobs, second-order rate constant, reduction of oxidized βME [7, 12] [M⁻¹ s⁻¹] | kobs, second-order rate constant, reduction of oxidized βME [7, 13] [M⁻¹ s⁻¹] | kobs, second-order rate constant, reactivation of creatine kinase [10] [M⁻¹ s⁻¹] | kobs, second-order rate constant, reactivation of papain [11] [M⁻¹ s⁻¹] | also measured
O=S(=O)(CCS)CCS [BMS, Bis(2-mercaptoethyl)sulfone] | −0.31 V | 0.0517±0.0194 | – | – | – | – | – | – | – | Disulfide Reduction Potential (E°′) ([2]; 50 mM potassium phosphate buffer pH 7, equilibrium with oxidized DTT, assuming E°′=−0.327 V for DTT, mean ± SE from seven experiments): −0.291±0.002 V; Thiol pKa ([3]; second (higher) thiol pKa): 9.0±0.2
NCCS [Cysteamine] | −0.203 V^b | – | 8.37^c | – | – | – | – | – | – | Amino pKa [4]: 10.44
N[C@H](CS)CCS [DTBA, (2S)-2-amino-1,4-dimercaptobutane] | – | 0.469±0.131 | – | 0.83 ± 0.04 | > 99 | 0.0093 ± 0.0003 | 0.29 ± 0.02 | 15.1 ± 1.0 | 1342 ± 148 | kobs^DTBA/kobs^DTT, reduction of oxidized L-glutathione (fold faster than DTT) ([5]; pH 7.0): 5.2; kobs^DTBA/kobs^DTT, reduction of oxidized βME (fold faster than DTT) ([7]; pH 5.5): 4.4; kobs^DTBA/kobs^DTT, reduction of oxidized βME (fold faster than DTT) ([7]; pH 7.0): 3.5; pKa ([8]; lower (first) thiol pKa, 0.10 M potassium phosphate buffer): 8.2 ± 0.2; pKa ([8]; second (higher) thiol pKa, in parentheses in Table 1): 9.3 ± 0.1; Solubility in water [9]: high solubility in water; kobs^DTBA/kobs^DTT, reduction of papain mixed disulfide (fold faster than DTT) [11]: 14
OCCS [βME, β-mercaptoethanol] | −0.260 V^b | – | 9.61^a | – | – | – | – | – | – | –
O[C@H](CS)[C@H](O)CS (racemic) [DTT, (2S,3S)-1,4-dimercaptobutane-2,3-diol] | – | – | – | 0.16 ± 0.02 | < 1 | 0.0021 ± 0.0002 | 0.084 ± 0.004 | 17.5 ± 1.6 | 91.3 ± 9.4 | Disulfide Reduction Potential (E°′) ([1]; listed as DTT (racemate)): −0.327 V^e; Residues in the reactive thiolate form ([8]; at pH 7): less than 1%; Thiol groups protonated (unreactive) ([8]; at pH 7, from lower thiol pKa […]): greater than 99%
